From patent US20040220121A1, “Methods for drug delivery” (priority 2003, published 2004)

Key:
[1] = test system: JJ5 Breast Cancer cells; assay: Growth inhibition assay of EGF-111In-labeled transferrin composition against JJ5 breast cancer cells; type: cell-based, human; details: 3.5 pCi/cell, cultured 4 days
Experimental: JJ5 breast cancer cells (prepared from BCBM JJ5) expressing approximately 10^6 epidermal growth factor receptors/cell were incubated with EGF-^111In-labeled transferrin composition, unlabeled hEGF or ^111In-oxine, centrifuged to remove free ligand, then assayed and seeded ([…]) into 35 mm culture dishes. Growth medium was added and the cells were cultured at 37° C./5% CO^2 for 4 days. The cells were then recovered by trypsinization and counted in a hemocytometer. Control dishes contained cells cultured in growth medium containing ^111In-DTPA or growth medium alone.

[2] = test system: JJ5 Breast Cancer cells; details: in vitro
Experimental: The EGF-^111In-labeled transferrin (0.25-80 ng) was incubated with 1.5×10^6 cells/dish JJ5 Breast Cancer (prepared from BCBM JJ5) cells in 1 mL of 0.1% human serum albumin in 35 mm multiwell culture dishes at 37° C. for 30 minutes. The cells were transferred to a centrifuge tube and centrifuged. The cell pellet was separated from the supernatant and counted in a g-scintillation counter to determine bound (B) and free (F) radioactivity. Non-specific binding was determined by conducting the assay in 100 nM hEGF. […] Internalized fraction was measured by determining the proportion of radioactivity which could not be displaced from the cell surface by 100 nM hEGF. Cell-associated binding (surface-binding and intracellular accumulation) was expressed as a percentage of medium radioactivity bound per mg of cell study protein.

Compound | growth inhibition of the JJ5 cells [1] | retained by the breast cancer cells ([2]; 37° C.) | 111In radioactivity lost from the cells ([2]; over a 24 hour period at 37° C.)
[In+3].[O-]c1cccc2cccnc12.[O-]c1cccc2cccnc12.[O-]c1cccc2cccnc12 [^111In-oxine] | 91% | – | –
EGF-^111In-labeled transferrin composition: human EGF linked via PEG3400-biotin or peptide linker to streptavidin-transferrin, transferrin labeled with 111In | – | at least 24 hours | < 8%
